Experiment in all cases: inhibition of tumour cell growth, NCI panel, 48 h
The subject of experiment [1] is OVCAR-4 ovarian.
Experiment [2] deals with SNB-75 CNS.
Experiment [3] concerns A549 NSCLC.
Experiment [4] has as its system K-562 leukemia.
Experiment [5] relates to OVCAR-5 ovarian.
The test system of experiment [6] is PC-3 prostate.
The test system of experiment [7] is EKVX NSCLC.
Experiment [8] deals with HCC-2998 colon.
Experiment [9] relates to HOP-92 NSCLC.
The test system of experiment [10] is BT-549 breast.

Each structure is given as a SMILES string. Where “and” joins values, the source holds several entries; their conditions need not be identical. Equal entries are not always repeated.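 Where inhibition never reached the appropriate level, the endpoint shown equals the highest concentration tested. Otherwise, values were interpolated linearly from a five-concentration, 48-hour dose response in 96-well plates. Abbreviation: GI50, concentration required for 50% inhibition of growth. TGI marks complete inhibition of growth.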 A value given as a limit tells only on which side of the number the result lay.

For `CC(=O)Oc1ccc(-c2c(OC(C)=O)c(OC(C)=O)c(-c3ccc(OC(C)=O)c(OC(C)=O)c3)c(OC(C)=O)c2OC(C)=O)cc1`, the TGI was found to be 31.8 µM in experiment [1]; 31.9 µM in [2]; 37.8 µM in experiment [3]; 43.5 µM in experiment [4]; 25 µM in experiment [5]; 31 µM in [6]. Moreover, the TGI in experiment [7] came to 20.2 µM.

Consider `CC(=O)N/N=C1\NN(C(C)=O)C2(S1)C(=O)Nc1ccccc12` (stereo unspecified), for which the TGI in experiment [8], in [1], in experiment [2], in experiment [4], in experiment [5] and in [6] was above 100 µM throughout. This compound displayed a TGI in experiment [7] above 100 µM.

Turning to `C=C1C(=O)OC2C1CC1OC2C(C)CCC/C(C)=C\CCC1(C)O` (stereo unspecified), the TGI is 63.5 µM in [8]; 56.6 µM in [1]; 51.5 µM in [2]; above 78.3 µM in experiment [3]; 48.5 µM in [4]; 124 µM in experiment [5]. Moreover, the TGI in experiment [9] is 30.1 µM; in experiment [7] it was 79.4 µM.

Regarding `O=C1C(=O)C(CCCO)(CCCO)CCCCCCCCC1(CCCO)CCCO`, the TGI in experiment [8] was above 100 µM; in experiment [1], above 100 µM; in experiment [2] it was above 100 µM; in experiment [3], above 100 µM; in experiment [4], 69.6 µM; in experiment [5] it was above 100 µM. For the same compound, the TGI in experiment [6], in [9] and in experiment [7] was above 100 µM in each case.

`CN(CCc1ccccn1)C(=S)N/N=C/c1ccccn1`: the TGI was 37.7 µM in experiment [8]; 21.4 µM in experiment [1]; above 100 µM in experiment [2]; 3.75 µM in experiment [3]; 0.0493 µM in [4]; 44.6 µM in experiment [5]. The TGI in [6] was above 58.1 µM; in experiment [9], 3.66 µM.

Regarding `CCCNC(=O)Cn1c(-c2ccccc2)cc2ccccc21`, the TGI in experiment [8], in experiment [1], in experiment [2], in experiment [3], in experiment [4] and in experiment [10] was above 100 µM throughout. In addition, the TGI in experiment [5], in experiment [6] and in [7] was above 100 µM in each case.

As to `Clc1cccc(Cl)c1C1ON=C(c2ccccc2)N1C12CC3CC(CC(C3)C1)C2` (stereo unspecified), the TGI is above 100 µM in experiment [8]; above 100 µM in [1]; 18.3 µM in experiment [2]; above 100 µM in [3]; 44.7 µM in [4]; above 100 µM in [5]. Besides, the TGI in experiment [6] is 29.9 µM; in experiment [9], 75.3 µM; in experiment [7], above 100 µM.

With `CCn1c2ccccc2c2cc(NC(=O)c3c(C)[nH]c(=O)[nH]c3=S)ccc21`, the TGI in experiment [8] was above 100 µM; in experiment [1], above 100 µM; in experiment [2], above 100 µM; in [4], above 100 µM; in experiment [10], above 100 µM; in experiment [5], 68.2 µM. The TGI in experiment [6] and in [9] was above 100 µM each time.

As for `CN1C(C(=O)Nc2ccccn2)=C(O)c2ccccc2S1(=O)=O`, the TGI in experiment [1], in experiment [2], in experiment [3], in experiment [10], in experiment [5] and in experiment [6] was above 100 µM throughout. For the same compound, in experiment [7], the TGI was above 100 µM.

As for `Cc1cc2nnn(C3CCCO3)c2cc1C` (stereo unspecified), the TGI in experiment [8], in experiment [2], in experiment [3], in experiment [4], in experiment [10] and in experiment [5] was above 100 µM throughout. In addition, the TGI in experiment [6] and in [7] was above 100 µM each time.

Consider `O=C(c1ccccc1)c1ccc2c(c1)N=C(c1ccc(Cl)c(Cl)c1)CC(c1ccc3ccccc3c1)N2` (stereo unspecified), for which the TGI in [8], in experiment [1], in [2], in experiment [3], in [4] and in [5] was above 100 µM throughout. In addition, the TGI in experiment [9] and in experiment [7] was above 100 µM throughout.

For the compound `O.O=[Se](=O)(O)O.[NH-]C1CCCCC1[NH-].[Pt+2]` (stereo unspecified), the GI50 in [8] is above 46.1 µM; in experiment [1], 11.6 µM; in experiment [2], 16.9 µM; in experiment [3] it was 5.26 µM; in experiment [4], 5.35 µM; in experiment [5] it was 26.7 µM. Further, the GI50 in [9] is 58.8 µM; in experiment [7], 36.1 µM. For the same compound, the TGI in [8] is above 100 µM; in experiment [1] it was above 100 µM; in experiment [2], above 83 µM; in experiment [3], above 100 µM; in experiment [4] it was above 100 µM; in [5], above 100 µM. Moreover, the TGI in experiment [9] and in experiment [7] was above 100 µM in each case.

In the case of `CC1Oc2c(c(O)cc3oc(=O)cc(-c4ccccc4)c23)C(=O)C1C` (stereo unspecified), the TGI in [2], in experiment [4], in experiment [9] and in experiment [7] was above 100 µM in each case.

Turning to `O=c1[nH]nc(Cc2ccc([N+](=O)[O-])cc2)[nH]1`, the TGI in experiment [8], in experiment [1], in experiment [2], in experiment [3], in [4] and in experiment [10] was above 100 µM each time. Further, the TGI in experiment [5], in experiment [6] and in experiment [7] was above 100 µM throughout.

As to `NCCCN1CCN(CCCNc2ccc3ncn4c5ccccc5c(=O)c2c34)CC1`, the TGI in experiment [8] was 2.93 µM; in experiment [1], 2.89 µM; in [2] it was 8.71 µM; in experiment [3] it was above 25 µM; in [4], above 25 µM; in experiment [5], 19.3 µM. The TGI in [6] was 10.8 µM; in [9], above 25 µM; in experiment [7] it was 9.03 µM.

As for `c1csc(-c2csc(-c3cccs3)c2)c1`, the TGI in experiment [8] was above 100 µM; in experiment [1], above 100 µM; in experiment [2] it was above 100 µM; in [3] it was above 100 µM; in experiment [5] it was above 100 µM; in experiment [6], 82.7 µM. In addition, the values for the TGI in experiment [9] and in experiment [7] were 69.8 µM and above 100 µM, respectively.

With `CC[N+]1(C)CCC(O)(/C=C/c2ccc(Cl)c(Cl)c2)C(C(=O)/C=C/c2ccc(Cl)c(Cl)c2)C1` (stereo unspecified), the TGI worked out at 3.96 µM in experiment [8]; 12.2 µM in [2]; 15.7 µM in experiment [3]; 4.07 µM in experiment [4]; 7.44 µM in [10]; 7.13 µM in [5]. The TGI was 5.19 µM in [6], 7.82 µM in [9] and 23.3 µM in [7].

As for `Cc1cccc(/C=N/NC(=S)NC(C)(C)C)n1`, the TGI in [8], in [1], in [2], in experiment [3], in [4] and in [10] was above 100 µM in each case. The TGI in experiment [5] and in experiment [6] was above 100 µM in each case.

For the compound `O/N=C1/CCCCC1NO` (stereo unspecified), the TGI in experiment [8], in experiment [1], in experiment [2], in experiment [3], in [4] and in experiment [5] was above 100 µM throughout. In addition, the TGI in [6] and in experiment [7] was above 100 µM each time.

On to `N#Cc1nc(Cc2cccs2)oc1N`, for which the TGI in experiment [2], in experiment [3], in [4], in [5], in experiment [6] and in experiment [9] was above 100 µM throughout. The compound also came in with a TGI in [7] above 100 µM.

Consider `COc1cccc2c1C(=O)c1c(O)c3c(c(O)c1C2=O)C[C@](O)(C(=O)CO)CC3OC1CC(N)C(OC2CCCCO2)C(C)O1` (stereo partly specified), for which the TGI in [8] came to 3.25 µM; in experiment [1], 4.2 µM; in experiment [2], 1.18 µM; in experiment [3], 13.3 µM; in [4] it was 6.5 µM; in [5], 2.17 µM. In addition, the TGI in [9] amounted to 1.02 µM; in experiment [7] it was 3.43 µM.

Regarding `Cc1ccc(Oc2cc(C)ccc2P(=O)(O)O)cc1`, the TGI in experiment [8], in experiment [2], in [3], in experiment [4], in experiment [10] and in [6] was above 100 µM in each case. For the same compound, the TGI in [9] and in experiment [7] was above 100 µM throughout.

Turning to `Cn1c(=O)n2n(c1=O)C1C(=CC2)C2C=CC1n1c(=O)n(C)c(=O)n12` (stereo unspecified), the TGI in [2], in experiment [3], in experiment [4], in [10], in [5] and in experiment [6] was above 100 µM each time. Moreover, the TGI in experiment [9] and in experiment [7] was above 100 µM in each case.

Take `COc1ccc(/C(Cl)=C(\C=O)c2ccc(Cl)cc2)cc1`: the TGI in [8] was above 100 µM; in experiment [1], above 100 µM; in [2], 26.2 µM; in [3], above 100 µM; in [4], above 100 µM; in experiment [5], above 100 µM. The compound further yielded a TGI in experiment [7] above 100 µM.

Take `O=C(n1c(=O)n(-c2ccc([N+](=O)[O-])cc2)c(=O)n1C(=O)C(Cl)(Cl)Cl)C(Cl)(Cl)Cl`: the TGI in [8], in experiment [1], in [2], in [3], in experiment [10] and in experiment [5] was above 100 µM in each case. The TGI in experiment [6] and in experiment [7] was above 100 µM throughout.

For the compound `OCC1=C[C@@](COCc2ccccc2)(OCc2ccccc2)[C@@H](OCc2ccccc2)[C@@H]1OCc1ccccc1`, the TGI in [8] worked out at 32.3 µM; in experiment [1] it was 73.3 µM; in experiment [3] it was 67.3 µM; in [4] it was 50.6 µM; in [10], 98.1 µM; in experiment [5], 60.3 µM. Moreover, the TGI in experiment [6] came to 55.5 µM; in [7], 51.4 µM.

Turning to `Brc1ccc2[nH]cc(-c3nc(-c4c[nH]c5ccncc45)cs3)c2c1`, the GI50 in experiment [8] is 1.98 µM; in experiment [2] it was 1.22 µM; in experiment [4] it was 0.98 µM; in experiment [5], 1.79 µM; in experiment [6], 1.58 µM. Besides, the TGI turned out to be 3.6 µM in experiment [8]; 2.53 µM in experiment [2]; 3.38 µM in experiment [4]; 3.21 µM in [5]; 3.06 µM in experiment [6].

In the case of `O=C1/C(=C/c2ccc(Cl)c(Cl)c2)CN(C(=O)CCN2CCOCC2)C/C1=C\c1ccc(Cl)c(Cl)c1`, the GI50 in experiment [8] was 0.773 µM; in experiment [1] it was 1.56 µM; in [4], 0.259 µM and 0.315 µM; in experiment [7], 1.37 µM. Moreover, the TGI was 3.56 µM and 2.08 µM in experiment [8]; 0.585 µM and 2.99 µM in [4]; 0.0487 µM in [10]; 0.0157 µM in experiment [6]; 4.35 µM and 6.41 µM and 3.09 µM in [7].

Take `CCC[CH2][Ge]([CH2]CCC)([CH2]CCC)[O]C(=O)CCl`: the GI50 in experiment [8] is 1.32 µM; in experiment [1] it was 2.76 µM; in [3], 1.01 µM; in experiment [4], 0.879 µM; in experiment [5], 12.3 µM; in experiment [9] it was 0.573 µM. Besides, in experiment [7], the GI50 was 1.18 µM. Moreover, the TGI in experiment [8] was determined as 7.63 µM; in experiment [1] it was 21.5 µM; in [3] it was 17.3 µM; in experiment [4] it was 31.6 µM; in experiment [5], 26.2 µM; in experiment [9], 8.54 µM. In addition, the TGI in experiment [7] is 16.2 µM.

As to `OCC(CO)CC1COc2ccccc2O1` (stereo unspecified), the TGI in [8], in experiment [1], in experiment [2], in experiment [3], in [4] and in experiment [5] was above 10 µM each time. The TGI in [6] and in experiment [7] was above 10 µM in each case.

Take `CC(=O)Nc1oc(C)nc1C#N`: the TGI in experiment [1], in experiment [3], in experiment [4], in [5], in [6] and in experiment [9] was above 100 µM each time. In addition, the TGI in experiment [7] is above 100 µM.

Source of the values: PubChem BioAssay (NCI).
